No end group written: not given here.
T1: human TAS1R2-I234V/TAS1R3-WT (Homo sapiens, UniProt Q7RTX0+Q8TE23, I234V)
T1 construct: expressed in transfected cells; host or cells: HEK293T-Gα16gust44
T1 sequence (Q8TE23 20-839 I234V): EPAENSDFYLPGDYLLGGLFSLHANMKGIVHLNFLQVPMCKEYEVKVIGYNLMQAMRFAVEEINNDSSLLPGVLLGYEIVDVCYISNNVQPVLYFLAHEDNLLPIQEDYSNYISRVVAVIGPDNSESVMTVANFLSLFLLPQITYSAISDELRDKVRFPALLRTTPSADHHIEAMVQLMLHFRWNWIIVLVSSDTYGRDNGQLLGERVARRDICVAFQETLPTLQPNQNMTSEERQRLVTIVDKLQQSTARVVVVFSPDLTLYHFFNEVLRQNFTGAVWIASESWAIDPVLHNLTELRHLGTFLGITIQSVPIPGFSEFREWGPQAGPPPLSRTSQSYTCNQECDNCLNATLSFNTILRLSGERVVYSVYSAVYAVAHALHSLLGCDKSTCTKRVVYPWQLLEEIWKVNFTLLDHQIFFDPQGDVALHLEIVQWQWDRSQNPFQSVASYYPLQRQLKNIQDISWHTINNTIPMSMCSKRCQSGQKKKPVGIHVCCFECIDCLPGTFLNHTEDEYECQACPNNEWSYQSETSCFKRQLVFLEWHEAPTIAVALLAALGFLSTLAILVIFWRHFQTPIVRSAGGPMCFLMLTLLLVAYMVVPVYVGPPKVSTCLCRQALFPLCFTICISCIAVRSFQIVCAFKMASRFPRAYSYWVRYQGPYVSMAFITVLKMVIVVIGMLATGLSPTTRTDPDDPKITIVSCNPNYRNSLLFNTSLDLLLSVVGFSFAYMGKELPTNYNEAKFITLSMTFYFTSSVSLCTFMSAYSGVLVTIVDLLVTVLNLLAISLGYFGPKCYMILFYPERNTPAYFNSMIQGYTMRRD
T1 sequence (Q7RTX0 21-852): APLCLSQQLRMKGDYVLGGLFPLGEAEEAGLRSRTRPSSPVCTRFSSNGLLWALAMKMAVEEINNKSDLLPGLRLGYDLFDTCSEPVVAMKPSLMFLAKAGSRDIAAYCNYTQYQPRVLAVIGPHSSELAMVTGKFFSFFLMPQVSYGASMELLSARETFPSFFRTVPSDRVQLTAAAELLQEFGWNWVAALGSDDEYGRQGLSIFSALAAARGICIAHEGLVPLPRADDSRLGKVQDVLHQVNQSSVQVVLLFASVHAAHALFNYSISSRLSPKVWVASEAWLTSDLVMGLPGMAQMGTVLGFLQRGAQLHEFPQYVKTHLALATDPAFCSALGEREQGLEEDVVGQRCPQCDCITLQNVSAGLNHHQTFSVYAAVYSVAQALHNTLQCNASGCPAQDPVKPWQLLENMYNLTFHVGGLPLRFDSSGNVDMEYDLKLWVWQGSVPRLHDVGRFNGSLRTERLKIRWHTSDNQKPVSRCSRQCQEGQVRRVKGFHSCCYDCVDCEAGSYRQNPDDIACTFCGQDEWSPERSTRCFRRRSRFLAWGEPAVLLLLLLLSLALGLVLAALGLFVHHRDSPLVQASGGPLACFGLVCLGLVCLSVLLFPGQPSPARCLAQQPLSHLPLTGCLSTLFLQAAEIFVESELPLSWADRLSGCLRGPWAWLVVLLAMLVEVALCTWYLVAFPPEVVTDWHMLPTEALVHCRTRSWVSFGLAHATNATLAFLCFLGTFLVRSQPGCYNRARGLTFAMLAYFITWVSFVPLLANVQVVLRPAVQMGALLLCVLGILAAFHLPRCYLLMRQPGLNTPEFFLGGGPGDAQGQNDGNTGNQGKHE


Biological target: T1, human TAS1R2-I234V/TAS1R3-WT
Experiment: Calcium mobilisation assay, TAS1R2 variant I234V with TAS1R3-WT
Assay type: cell-based
Details: for Max ΔF/F0: maximal signal amplitude
Source text: The coding sequences for TAS1R2 and TAS1R3 were commercially synthesised, and the human codon was optimised for expression in human cells. The coding sequences of human TAS1R2 and TAS1R3 were subcloned and inserted into the mammalian expression vectors pcDNA6/myc-HisA and pcDNA4/myc-HisA (Invitrogen; Thermo Fisher Scientific; Illkirch, France) between the EcoRI and NotI restriction sites, generating the plasmids pcDNA6-TAS1R2 and pcDNA4-TAS1R3, respectively. To increase protein expression in mammalian cells, an upstream start codon was used, which was a sequence called MAX, corresponding to the QBI SP163 element also described in pcDNA4-HisMax (Invitrogen; Thermo Fisher Scientific; Illkirch, France). To measure the expression level of the receptor by immunohistochemistry, we used the FLAG sequence ([…]) in the C-terminal position, which encodes the FLAG tag epitope. SNP variants of TAS1R2 and TAS1R3 were constructed based on […], respectively, using site-directed mutagenesis (Genewiz; Leipzig, Germany).
The HEK293T cells were kindly provided by Jay P. Slack (Givaudan Flavors Corporation; Cincinnati, OH, USA). HEK293T cells stably transfected with Gα16gust44 [43, 67] were seeded in poly-D-lysine-coated clear-bottom black 96-well plates (0.35 × 10^5 cells/well) in high-glucose DMEM supplemented with 2 mM GlutaMAX, 10% dialysed foetal bovine serum with penicillin/streptomycin and G418 (400 μg/mL) at 37 °C and 6.3% CO2 in a humidified atmosphere as previously reported. […] As a negative control, HEK293T cells were mock-transfected with the empty expression vector. After a further 24 h of incubation, the HEK293T cells were washed with C1 buffer (130 mM NaCl, 5 mM KCl, 10 mM HEPES pH 7.4 and 2 mM CaCl2). The 96-well plates containing the cells were then stimulated with sweet-tasting compounds. […] Different concentration ranges were tested depending on the sweet compound injected. The Ca^2+ changes were expressed as fractional changes in fluorescent light intensity: ΔF/F = (F − F0)/F0, where F was the fluorescent light intensity at each point, and F0 was the value of emitted fluorescent light prior to stimulus application. To calculate dose–response relationships, the changes in fluorescence upon stimulus application were averaged, mock-subtracted and baseline-corrected. The dose–response data obtained were adjusted using a 4-parameter logistic equation. The half-maximal effective concentrations (EC50 values) and maximal signal amplitudes were calculated using SigmaPlot software (version 15.0) (Systat Software; San Jose, CA, USA).
For in vitro calcium mobilisation assay performed on hTAS1R2-SNPs, hTAS1R3-SNPs and mTAS1R3-I60T, 6 to 7 concentrations were tested for each sweet compound, plus buffer alone. All concentration–receptor combinations were measured in duplicate, and each experiment was repeated at least 4 times (8 wells/concentration). Results were expressed for each concentration as ΔF/F mean ± SEM and represented as dose–response curves.

| Molecule | EC50 [µM] | R1 = Variant EC50/WT EC50 | Max ΔF/F0 |
| --- | --- | --- | --- |
| CC1=CC(=O)NS(=O)(=O)O1 [Acesulfame K, acesulfame K] | 510 ± 63 | 0.7 | 0.41 ± 0.02 |
| O=S(=O)(O)NC1CCCCC1 [Cyclamate, cyclamate] | 2250 ± 42 | – | – |
| C[C@H](CC[C@@H](O[C@@H]1O[C@H](CO[C@@H]2O[C@H](CO)[C@@H](O)[C@H](O)[C@H]2O)[C@@H](O)[C@H](O)[C@H]1O[C@@H]1O[C@H](CO)[C@@H](O)[C@H](O)[C@H]1O)C(C)(C)O)[C@H]1CC[C@@]2(C)[C@@H]3CC=C4[C@@H](CC[C@H](O[C@@H]5O[C@H](CO[C@@H]6O[C@H](CO)[C@@H](O)[C@H](O)[C@H]6O)[C@@H](O)[C@H](O)[C@H]5O)C4(C)C)[C@]3(C)[C@H](O)C[C@]12C [Mogroside V, mogroside V] | 19.4 ± 1.6 | 1.1 | 1.28 ± 0.04 |
| COc1ccc(CCC(=O)c2c(O)cc(O[C@@H]3O[C@H](CO)[C@@H](O)[C@H](O)[C@H]3O[C@@H]3O[C@@H](C)[C@H](O)[C@@H](O)[C@H]3O)cc2O)cc1O [NHDC, neohesperidin dihydrochalcone] | 94.7 ± 6.8 | 1.2 | 0.80 ± 0.02 |
| COC(=O)[C@H](Cc1ccccc1)NC(=O)[C@H](CC(=O)O)NCCC(C)(C)C [Neotame] | 0.8 ± 0.08 | 1.0 | 0.66 ± 0.02 |
| C=C(C)[C@@H]1CC=C(/C=N/O)CC1 [Perillartine, perillartine] | 20.1 ± 1.1 | 1.1 | 1.52 ± 0.03 |
| C=C1C[C@@]23CC[C@H]4[C@@](C)(CCC[C@@]4(C)C(=O)O[C@@H]4O[C@H](CO)[C@@H](O)[C@H](O[C@@H]5O[C@H](CO)[C@@H](O)[C@H](O)[C@H]5O)[C@H]4O[C@@H]4O[C@H](CO)[C@@H](O)[C@H](O)[C@H]4O)[C@@H]2CC[C@]1(O[C@@H]1O[C@H](CO)[C@@H](O)[C@H](O[C@@H]2O[C@H](CO)[C@@H](O)[C@H](O)[C@H]2O)[C@H]1O[C@@H]1O[C@H](CO)[C@@H](O)[C@H](O)[C@H]1O)C3 [Rebaudioside M, rebaudioside M] | 18.4 ± 0.6 | 1.1 | 1.14 ± 0.01 |

Next, values leading:

| EC50 [µM] | R1 = Variant EC50/WT EC50 | Max ΔF/F0 | Molecule |
| --- | --- | --- | --- |
| 60 ± 7 | 0.7 | 0.75 ± 0.03 | OC[C@H]1O[C@H](O[C@]2(CCl)O[C@H](CCl)[C@@H](O)[C@@H]2O)[C@H](O)[C@@H](O)[C@H]1Cl [Sucralose] |
| – | 1.1 | 1.34 ± 0.05 | brazzein (QDKCKKVYENYPVSKCQLANQCNYDCKLDKHARSGECFYDEKRNLQCICDYCEY; ends and bridges not checked; cysteine pairing not given here; UniProt P56552 1-54, looked up) [sweet-tasting protein obtained by recombinant production using the yeast Pichia pastoris] |
| – | 1.8 | 1.25 ± 0.01 | thaumatin |
| 13.8 ± 0.2 | – | – | thaumatin (protein, Eight disulfides, sweet-tasting plant protein, E957) ATFEIVNRCSYTVWAAASKGDAALDAGGRQLNSGESWTINVEPGTKGGKIWARTDCYFDDSGSGICKTGDCGGLLRCKRFGRPPTTLAEFSLNQYGKDYIDISNIKGFNVPMDFSPTTRGCRGVRCAADIVGQCPAKLKAPGGGCNDACTVFQTSEYCCTTGKCGPTEYSRFFKRLCPDAFSYVLDKPTTVTCPGSSNYRVTFCPTA |
